Where two headings read alike, the source gives them in different places.

The target in this experiment is T1, Fatty acid synthase (FAS) (Saccharomyces cerevisiae, UniProt P07149+P19097).
T1 construct: gene FAS1; with FAS2 (alpha subunit of the yeast FAS complex)
Kind of experiment: FAS activity (absorbance at […] nm, malonyl CoA/acetyl CoA/NADPH) in ammonium sulfate-precipitated yeast protein extract. It counts as biochemical.

T1 sequence (P19097 whole entry): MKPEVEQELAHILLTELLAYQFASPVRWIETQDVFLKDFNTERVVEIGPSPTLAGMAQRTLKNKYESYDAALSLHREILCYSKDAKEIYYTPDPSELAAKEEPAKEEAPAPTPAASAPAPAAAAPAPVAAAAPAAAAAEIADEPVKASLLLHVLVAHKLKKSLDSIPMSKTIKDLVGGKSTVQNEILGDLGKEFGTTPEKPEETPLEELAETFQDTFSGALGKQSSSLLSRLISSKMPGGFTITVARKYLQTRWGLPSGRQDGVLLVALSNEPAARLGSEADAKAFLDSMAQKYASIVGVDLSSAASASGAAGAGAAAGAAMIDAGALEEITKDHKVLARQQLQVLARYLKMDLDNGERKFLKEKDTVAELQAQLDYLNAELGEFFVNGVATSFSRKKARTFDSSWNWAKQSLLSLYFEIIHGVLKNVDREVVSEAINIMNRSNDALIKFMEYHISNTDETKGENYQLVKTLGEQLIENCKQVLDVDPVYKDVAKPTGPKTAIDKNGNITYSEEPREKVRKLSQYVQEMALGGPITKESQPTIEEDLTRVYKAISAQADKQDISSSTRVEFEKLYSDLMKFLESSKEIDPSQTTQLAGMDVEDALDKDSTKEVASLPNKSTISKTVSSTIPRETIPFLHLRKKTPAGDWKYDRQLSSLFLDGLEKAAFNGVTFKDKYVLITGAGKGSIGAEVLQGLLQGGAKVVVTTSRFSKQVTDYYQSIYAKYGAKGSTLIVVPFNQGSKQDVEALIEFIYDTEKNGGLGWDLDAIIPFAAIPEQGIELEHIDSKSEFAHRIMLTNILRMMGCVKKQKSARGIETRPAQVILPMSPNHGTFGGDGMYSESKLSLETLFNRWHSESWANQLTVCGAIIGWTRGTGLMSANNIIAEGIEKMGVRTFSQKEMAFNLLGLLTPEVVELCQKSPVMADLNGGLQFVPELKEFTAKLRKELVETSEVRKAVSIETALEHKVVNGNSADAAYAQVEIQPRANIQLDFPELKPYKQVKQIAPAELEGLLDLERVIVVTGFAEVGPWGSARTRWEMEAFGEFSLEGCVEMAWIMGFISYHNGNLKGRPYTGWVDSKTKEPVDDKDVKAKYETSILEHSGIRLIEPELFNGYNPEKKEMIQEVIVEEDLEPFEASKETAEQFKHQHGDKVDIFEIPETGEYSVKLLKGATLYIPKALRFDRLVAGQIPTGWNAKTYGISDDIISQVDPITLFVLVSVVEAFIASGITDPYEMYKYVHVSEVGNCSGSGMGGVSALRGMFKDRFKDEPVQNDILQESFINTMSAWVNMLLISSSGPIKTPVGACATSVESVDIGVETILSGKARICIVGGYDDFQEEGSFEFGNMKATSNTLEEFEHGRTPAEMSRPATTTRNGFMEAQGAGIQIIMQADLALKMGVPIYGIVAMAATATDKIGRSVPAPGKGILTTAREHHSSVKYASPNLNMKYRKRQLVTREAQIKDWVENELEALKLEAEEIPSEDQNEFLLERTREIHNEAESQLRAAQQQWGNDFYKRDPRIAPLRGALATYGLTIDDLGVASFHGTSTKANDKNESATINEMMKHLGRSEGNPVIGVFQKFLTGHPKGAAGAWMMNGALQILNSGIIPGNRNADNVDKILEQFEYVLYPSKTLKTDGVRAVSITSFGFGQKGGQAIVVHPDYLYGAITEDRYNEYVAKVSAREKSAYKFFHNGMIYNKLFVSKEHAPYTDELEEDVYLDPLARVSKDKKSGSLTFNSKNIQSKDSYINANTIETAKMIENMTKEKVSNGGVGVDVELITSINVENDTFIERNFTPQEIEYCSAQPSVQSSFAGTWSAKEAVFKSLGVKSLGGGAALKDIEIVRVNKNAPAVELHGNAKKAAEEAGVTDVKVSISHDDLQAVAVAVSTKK
T1 sequence (P07149 whole entry): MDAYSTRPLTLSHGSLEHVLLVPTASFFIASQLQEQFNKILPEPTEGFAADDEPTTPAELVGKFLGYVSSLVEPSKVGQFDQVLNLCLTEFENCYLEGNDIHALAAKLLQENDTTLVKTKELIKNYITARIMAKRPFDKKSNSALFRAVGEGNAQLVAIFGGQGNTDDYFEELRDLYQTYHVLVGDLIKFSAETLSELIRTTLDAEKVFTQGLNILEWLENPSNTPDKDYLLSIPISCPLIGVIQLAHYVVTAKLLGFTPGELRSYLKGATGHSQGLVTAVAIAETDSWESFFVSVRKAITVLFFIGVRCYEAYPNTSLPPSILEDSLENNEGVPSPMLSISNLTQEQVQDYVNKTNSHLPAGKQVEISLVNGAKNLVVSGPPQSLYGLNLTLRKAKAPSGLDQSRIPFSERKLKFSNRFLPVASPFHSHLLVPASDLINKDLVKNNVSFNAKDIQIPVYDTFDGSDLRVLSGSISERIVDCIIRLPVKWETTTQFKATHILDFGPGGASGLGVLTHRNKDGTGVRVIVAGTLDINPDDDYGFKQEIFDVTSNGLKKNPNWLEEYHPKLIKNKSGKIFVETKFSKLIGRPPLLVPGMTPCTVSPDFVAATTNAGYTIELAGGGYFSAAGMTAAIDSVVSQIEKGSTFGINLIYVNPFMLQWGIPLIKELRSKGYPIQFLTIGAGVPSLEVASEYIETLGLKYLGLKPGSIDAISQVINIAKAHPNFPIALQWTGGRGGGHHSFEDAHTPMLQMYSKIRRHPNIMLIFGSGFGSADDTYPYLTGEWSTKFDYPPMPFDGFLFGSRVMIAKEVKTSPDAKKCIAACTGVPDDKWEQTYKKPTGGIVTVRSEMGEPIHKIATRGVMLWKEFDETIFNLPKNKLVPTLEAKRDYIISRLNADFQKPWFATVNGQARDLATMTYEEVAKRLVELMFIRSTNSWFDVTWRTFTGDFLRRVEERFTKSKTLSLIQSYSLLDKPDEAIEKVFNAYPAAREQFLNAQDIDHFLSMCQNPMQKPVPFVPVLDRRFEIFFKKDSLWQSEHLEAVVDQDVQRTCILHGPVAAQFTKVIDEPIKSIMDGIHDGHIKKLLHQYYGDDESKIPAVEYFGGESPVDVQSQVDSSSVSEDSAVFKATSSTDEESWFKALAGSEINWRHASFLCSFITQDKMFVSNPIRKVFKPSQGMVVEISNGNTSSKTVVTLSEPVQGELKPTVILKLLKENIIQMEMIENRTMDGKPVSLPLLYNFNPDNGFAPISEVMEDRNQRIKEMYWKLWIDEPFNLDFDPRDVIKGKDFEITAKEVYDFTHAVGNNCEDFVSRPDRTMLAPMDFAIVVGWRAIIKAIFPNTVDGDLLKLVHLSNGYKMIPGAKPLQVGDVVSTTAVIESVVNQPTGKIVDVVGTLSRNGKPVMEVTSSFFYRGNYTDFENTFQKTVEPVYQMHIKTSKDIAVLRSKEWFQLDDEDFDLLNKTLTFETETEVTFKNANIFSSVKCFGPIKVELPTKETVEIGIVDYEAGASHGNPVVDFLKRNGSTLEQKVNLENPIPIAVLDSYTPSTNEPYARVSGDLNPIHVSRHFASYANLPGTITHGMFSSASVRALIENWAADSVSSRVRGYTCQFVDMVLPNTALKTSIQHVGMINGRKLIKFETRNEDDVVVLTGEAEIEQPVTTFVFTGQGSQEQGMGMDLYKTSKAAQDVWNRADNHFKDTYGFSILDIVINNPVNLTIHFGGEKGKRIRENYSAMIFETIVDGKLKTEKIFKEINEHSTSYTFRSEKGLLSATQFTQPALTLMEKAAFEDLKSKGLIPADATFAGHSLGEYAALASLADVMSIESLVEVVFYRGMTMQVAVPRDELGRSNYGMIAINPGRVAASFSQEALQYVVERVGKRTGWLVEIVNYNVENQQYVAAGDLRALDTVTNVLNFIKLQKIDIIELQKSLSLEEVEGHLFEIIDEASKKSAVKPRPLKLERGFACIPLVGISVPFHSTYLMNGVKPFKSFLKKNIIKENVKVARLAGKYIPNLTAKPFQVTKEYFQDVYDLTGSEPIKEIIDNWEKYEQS

Take `O=c1c(O)c(-c2ccc(O)c(O)c2)oc2cc(O)cc(O)c12` [QCT, Quercetin]: the IC50 (read-out: IC50 (μg/mL) (converted)) was 56.6 µM.
`O=C(/C=C/c1ccccc1)c1ccccc1` [T-CHL, Trans-chalcone]: the IC50 (read-out: IC50 (converted)) is 328 µM.
